These results are taken from US7632933B2, “Corticotropin releasing factor 2 receptor agonists” (priority 2002, dated 2009).

The target in assay [1] is T1, CRF1R (Homo sapiens, UniProt P34998).
T1 sequence (P34998 24-415): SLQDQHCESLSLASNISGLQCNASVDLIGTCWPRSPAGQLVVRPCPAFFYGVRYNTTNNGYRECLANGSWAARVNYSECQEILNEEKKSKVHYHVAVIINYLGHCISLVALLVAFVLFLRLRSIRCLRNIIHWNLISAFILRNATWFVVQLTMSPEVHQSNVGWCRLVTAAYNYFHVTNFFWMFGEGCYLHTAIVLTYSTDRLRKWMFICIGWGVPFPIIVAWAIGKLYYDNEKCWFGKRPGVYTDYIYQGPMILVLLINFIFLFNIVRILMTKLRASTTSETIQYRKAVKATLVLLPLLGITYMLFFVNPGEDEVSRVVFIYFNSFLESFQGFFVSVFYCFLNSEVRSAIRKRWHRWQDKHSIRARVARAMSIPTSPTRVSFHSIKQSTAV
As to the kind of experiment: CRF1R agonist activity (EC50 and Emax), called comparative CRF binding. The format is cell-based. As to conditions: CRF1R; read-out: CRF1R EC50. From the text:
(§1) The pharmacological activity and selectivity of the peptides of present invention can be determined using published test procedures. See, e.g, U.S. patent application Ser. No. 09/799,978. Because CRF2R and CRF1R are homologous proteins, it is expected that a certain proportion of agonists for CRF2R will also function as agonists of CRF1R. As discussed above, activation of CRF1R induces activation of the HPA axis since increased corticosteroid production leads to skeletal muscle atrophy. In most cases in which an increase in muscle mass or function is desired, it is not desirable to activate the HPA axis.
(§2) Because it is desirable to discriminate binding between CRF2R, as compared with CRF1R, the assays described above may be conducted using a cell, or membrane from a cell, which expresses only CRF2R or the assays can be conducted with a recombinant source of CRF2R. Cells expressing both forms of CRFR may be modified using homologous recombination to inactivate or otherwise disable the CRF1R gene. Alternatively, if the source of CRFR contains more than one CRFR type, the background signal produced by the receptor which is not of interest must be subtracted from the signal obtained in the assay. […] Known antagonists of CRFRs include, but are not limited to, antalarmin (CRF1R selective), antisauvagine-30 (CRF2R selective) and astressin (nonselective for CRF1R/CRF2R).
(§3) Cell-based assays include the steps of contacting cells which express CRF1R or CRF2R with a peptide of the present invention or control and measuring activation of the CRFR by measuring the expression or activity of components of the CRFR signal transduction pathways.
(§4) For example, after contact with a peptide of the present invention, lysates of the cells can be prepared and assayed for induction of cAMP. cAMP is induced in response to Gαs activation. Because Gαs is activated by receptors other than CRFR and because a test peptide may be exerting its effect through CRFRs or by another mechanism, two control comparisons are relevant for determining whether the peptide increases levels of cAMP via activation of a CRFR. One control compares the cAMP level of cells contacted with the peptide and the cAMP level of cells contacted with a control compound (i.e., the vehicle in which the peptide is dissolved).
(§5) In one example, cAMP induction is measured with the use of DNA constructs containing the cAMP responsive element linked to any of a variety of reporter genes can be introduced into cells expressing CRFRs. Such reporter genes include, but are not limited to, chloramphenicol acetyltransferase (CAT), luciferase, glucuronide synthetase, growth hormone, fluorescent proteins (e.g., Green Fluorescent Protein), or alkaline phosphatase. Following exposure of the cells to the peptide, the level of reporter gene expression can be quantitated to determine the peptide's ability to increase cAMP levels and thus determine the peptide's ability to activate the CRFR.
(§6) In addition to using cells expressing full length CRFRs, cells can be engineered which express CRFRs containing the ligand binding domain of the receptor coupled to, or physically modified to contain, reporter elements or to interact with signaling proteins. For example, a wild type CRFR or CRFR fragment can be fused to a G-protein resulting in activation of the fused G-protein upon agonist binding to the CRFR portion of the fusion protein. […] In addition, alternative pathways for induction of the CRE reporter could be eliminated to reduce basal levels.

Assay [2] deals with T2, CRF2R (Homo sapiens, UniProt Q13324).
T2 sequence (Q13324 1-411): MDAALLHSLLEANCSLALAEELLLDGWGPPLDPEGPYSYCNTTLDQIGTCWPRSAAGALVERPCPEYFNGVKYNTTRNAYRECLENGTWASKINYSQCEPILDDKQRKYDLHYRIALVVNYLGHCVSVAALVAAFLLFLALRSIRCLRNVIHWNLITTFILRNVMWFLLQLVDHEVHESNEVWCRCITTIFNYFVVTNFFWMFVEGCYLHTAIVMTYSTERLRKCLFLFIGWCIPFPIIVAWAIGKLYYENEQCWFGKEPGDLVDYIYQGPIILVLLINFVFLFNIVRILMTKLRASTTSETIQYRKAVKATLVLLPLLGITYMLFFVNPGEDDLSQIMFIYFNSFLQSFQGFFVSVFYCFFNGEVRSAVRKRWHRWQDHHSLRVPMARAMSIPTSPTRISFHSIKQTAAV
As to the kind of experiment: CRF2R agonist activity (EC50 and Emax), called comparative CRF binding. The assay is classed as cell-based. The following applies: CRF2R; read-out: CRF2R EC50.
Source text: as §1, §2, §3, §4, §5, §6

Ends that are not written are not given here. Peptide text beside a SMILES is read from it. Bounds are passed on as bounds.

In general, EC50 refers to the concentration needed to bring the measured effect to its halfway point. Consider `CC[C@H](C)[C@H](N)C(=O)N[C@H](C(=O)N[C@@H](CC(C)C)C(=O)N[C@@H](CO)C(=O)N[C@@H](CC(C)C)C(=O)N[C@@H](CC(=O)O)C(=O)N[C@H](C(=O)N1CCC[C@H]1C(=O)NCC(=O)N1CCC[C@H]1C(=O)N[C@@H](CC(C)C)C(=O)N[C@@H](CC(C)C)C(=O)N[C@@H](CCC(N)=O)C(=O)N[C@H](C(=O)N[C@@H](CC(C)C)C(=O)N[C@@H](CC(C)C)C(=O)N[C@@H](CCC(=O)O)C(=O)N[C@@H](CCC(N)=O)C(=O)N[C@H](C(=O)N[C@@H](CCCCN)C(=O)N[C@@H](CCC(N)=O)C(=O)N[C@@H](CCC(=O)O)C(=O)N[C@@H](C)C(=O)N[C@@H](C)C(=O)N[C@@H](CCCNC(=N)N)C(=O)N[C@@H](CCC(=O)O)C(=O)N[C@@H](CCC(N)=O)C(=O)N[C@@H](C)C(=O)N[C@H](C(=O)N[C@H](C(=O)N[C@@H](CC(N)=O)C(=O)N[C@@H](C)C(=O)N[C@@H](CCCNC(=N)N)C(=O)N[C@H](C(=O)N[C@@H](CC(C)C)C(=O)N[C@@H](C)C(=O)N[C@@H](CCCNC(=N)N)C(=O)N[C@H](C(N)=O)C(C)C)[C@@H](C)CC)[C@@H](C)O)[C@@H](C)O)[C@@H](C)O)[C@@H](C)CC)C(C)C)C(C)C` [compound 5] (H-IVLSLDVPGPLLQILLEQTKQEAAREQATTNARILARV-NH2), for which the EC50 in assay [1] and in assay [2] was not below 100 nM each time.

Consider `CC[C@H](C)[C@H](N)C(=O)N[C@H](C(=O)N[C@@H](CC(C)C)C(=O)N[C@@H](CO)C(=O)N[C@@H](CC(C)C)C(=O)N[C@@H](CC(=O)O)C(=O)N[C@H](C(=O)N1CCC[C@H]1C(=O)N[C@H](C(=O)NCC(=O)N[C@@H](CC(C)C)C(=O)N[C@@H](CC(C)C)C(=O)N[C@@H](CCC(N)=O)C(=O)N[C@H](C(=O)N[C@@H](CC(C)C)C(=O)N[C@@H](CC(C)C)C(=O)N[C@@H](CCC(=O)O)C(=O)N[C@@H](CCC(N)=O)C(=O)N[C@@H](C)C(=O)N[C@@H](CCCNC(=N)N)C(=O)N[C@@H](C)C(=O)N[C@@H](CCCNC(=N)N)C(=O)N[C@@H](C)C(=O)N[C@@H](C)C(=O)N[C@@H](CCCNC(=N)N)C(=O)N[C@@H](CCC(=O)O)C(=O)N[C@@H](CCC(N)=O)C(=O)N[C@@H](C)C(=O)N[C@H](C(=O)N[C@H](C(=O)N[C@@H](CCC(N)=O)C(=O)N[C@@H](C)C(=O)N[C@@H](CCCNC(=N)N)C(=O)N[C@H](C(=O)N[C@@H](CC(C)C)C(=O)N[C@@H](C)C(=O)N[C@@H](CCCNC(=N)N)C(=O)N[C@H](C(N)=O)C(C)C)[C@@H](C)CC)[C@@H](C)O)[C@@H](C)O)[C@@H](C)CC)[C@@H](C)CC)C(C)C)C(C)C` [compound 9] (H-IVLSLDVPIGLLQILLEQARARAAREQATTQARILARV-NH2), for which the concentration for a half-maximal effect (EC50) in assay [1] and in assay [2] was not below 100 nM each time.

As for `CC[C@H](C)[C@H](NC(=O)[C@H](CC(=O)O)NC(=O)[C@H](CC(C)C)NC(=O)[C@H](CC(C)C)NC(=O)[C@H](CCCCN)NC(=O)[C@H](CCCNC(=N)N)NC(=O)[C@H](CC(N)=O)NC(=O)[C@H](CO)NC(=O)[C@H](Cc1c[nH]cn1)NC(=O)[C@H](C)NC(=O)[C@H](CCC(N)=O)NC(=O)[C@H](CCC(N)=O)NC(=O)[C@H](C)NC(=O)[C@H](CC(C)C)NC(=O)[C@H](CCC(N)=O)NC(=O)[C@H](CC(=O)O)NC(=O)[C@H](C)NC(=O)[C@H](CCCCN)NC(=O)[C@@H](NC(=O)[C@H](CCSC)NC(=O)[C@H](CCC(=O)O)NC(=O)[C@H](CC(C)C)NC(=O)[C@@H](NC(=O)[C@H](CCC(=O)O)NC(=O)[C@H](CCCNC(=N)N)NC(=O)[C@H](CC(C)C)NC(=O)[C@H](CC(C)C)NC(=O)[C@H](Cc1c[nH]cn1)NC(=O)[C@H](Cc1ccccc1)NC(=O)[C@@H]1CCCN1C(=O)[C@H](CC(C)C)NC(=O)[C@H](CC(=O)O)NC(=O)[C@H](CC(C)C)NC(=O)[C@H](CO)NC(=O)[C@@H](NC(=O)[C@@H]1CCCN1C(=O)[C@@H]1CCCN1C(=O)[C@H](CCC(=O)O)NC(=O)[C@H](CCC(N)=O)NC(=O)[C@@H](N)CO)[C@@H](C)CC)C(C)C)[C@@H](C)O)C(=O)N[C@@H](C)C(N)=O` [compound 104], the concentration for a half-maximal effect (EC50) in assay [1] and in assay [2] was not below 100 nM each time.

For `CC[C@H](C)[C@H](N)C(=O)N[C@H](C(=O)N[C@@H](CC(C)C)C(=O)N[C@@H](CO)C(=O)N[C@@H](CC(C)C)C(=O)N[C@@H](CC(=O)O)C(=O)N[C@H](C(=O)N1CCC[C@H]1C(=O)N[C@H](C(=O)NCC(=O)N[C@@H](CC(C)C)C(=O)N[C@@H](CC(C)C)C(=O)N[C@@H](CCC(N)=O)C(=O)N[C@H](C(=O)N[C@@H](CC(C)C)C(=O)N[C@@H](CC(C)C)C(=O)N[C@@H](CCC(=O)O)C(=O)N[C@@H](CCC(N)=O)C(=O)N[C@@H](C)C(=O)N[C@@H](CCCCN)C(=O)N[C@@H](C)C(=O)N[C@@H](CCCNC(=N)N)C(=O)N[C@@H](C)C(=O)N[C@@H](C)C(=O)N[C@@H](CCCNC(=N)N)C(=O)N[C@@H](CCC(=O)O)C(=O)N[C@@H](CCC(N)=O)C(=O)N[C@@H](C)C(=O)N[C@H](C(=O)N[C@H](C(=O)N[C@@H](CC(N)=O)C(=O)N[C@@H](C)C(=O)N[C@@H](CCCNC(=N)N)C(=O)N[C@H](C(=O)N[C@@H](CC(C)C)C(=O)N[C@@H](C)C(=O)N[C@@H](CCCNC(=N)N)C(=O)N[C@H](C(N)=O)C(C)C)[C@@H](C)CC)[C@@H](C)O)[C@@H](C)O)[C@@H](C)CC)[C@@H](C)CC)C(C)C)C(C)C` [compound 109] (H-IVLSLDVPIGLLQILLEQAKARAAREQATTNARILARV-NH2; N-terminus assumed), the EC50 in assay [2] is 11.8 nM.

Consider `CC[C@H](C)[C@H](N)C(=O)N[C@H](C(=O)N[C@@H](CC(C)C)C(=O)N[C@@H](CO)C(=O)N[C@@H](CC(C)C)C(=O)N[C@@H](CC(=O)O)C(=O)N[C@H](C(=O)N1CCC[C@H]1C(=O)N[C@H](C(=O)NCC(=O)N[C@@H](CC(C)C)C(=O)N[C@@H](CC(C)C)C(=O)N[C@@H](CCC(N)=O)C(=O)N[C@H](C(=O)N[C@@H](CC(C)C)C(=O)N[C@@H](CC(C)C)C(=O)N[C@@H](CCC(=O)O)C(=O)N[C@@H](CCC(N)=O)C(=O)N[C@H](C(=O)N[C@@H](CCCCN)C(=O)N[C@@H](C)C(=O)N[C@@H](CCCNC(=N)N)C(=O)N[C@@H](C)C(=O)N[C@@H](C)C(=O)N[C@@H](CCCNC(=N)N)C(=O)N[C@@H](CCC(=O)O)C(=O)N[C@@H](CCC(N)=O)C(=O)N[C@@H](C)C(=O)N[C@H](C(=O)N[C@H](C(=O)N[C@@H](CC(N)=O)C(=O)N[C@@H](C)C(=O)N[C@@H](CCCNC(=N)N)C(=O)N[C@H](C(=O)N[C@@H](CC(C)C)C(=O)N[C@@H](C)C(=O)N[C@@H](CCCNC(=N)N)C(=O)N[C@H](C(N)=O)C(C)C)[C@@H](C)CC)[C@@H](C)O)[C@@H](C)O)[C@@H](C)O)[C@@H](C)CC)[C@@H](C)CC)C(C)C)C(C)C` [compound 117] (H-IVLSLDVPIGLLQILLEQTKARAAREQATTNARILARV-NH2; N-terminus assumed), for which the half-maximal effective concentration (EC50) in assay [2] came to 9.41 nM.

Regarding “SQEPPISLDLPLELLREVLEMTKADQLAQQAHSNRKLLDIA-NH2 [compound 89]”, the EC50 in assay [2] was not below 100 nM.
